From ChEMBL document CHEMBL1177837, “5-Isopropylidene-3-ethyl rhodanine induce growth inhibition followed by apoptosis in leukemia cells” (Eur J Med Chem, 2010)
Activity calls are given as the source filed them.

Tests used:
Assay type in all cases: functional, cell-based
CCRF-CEM [1] = test: Cell cycle arrest in human CEM cells assessed as accumulation at G2/M phase after 72 hrs by FACS
CCRF-CEM [2] = test: Cytotoxicity against human CEM cells at 100 uM after 48 hrs by trypan blue exclusion assay
CCRF-CEM [3] = test: Cell cycle arrest in human CEM cells assessed as accumulation at G2 phase after 72 hrs by FACS
CCRF-CEM [4] = test: Cytotoxicity against human CEM cells assessed as LDH release after at 10 to 250 uM; conditions: TDE = time-dependent effect
CCRF-CEM [5] = test: Cell cycle arrest in human CEM cells assessed as accumulation at S phase after 72 hrs by FACS
CCRF-CEM [6] = test: Cytotoxicity against human CEM cells at 250 uM after 48 hrs by trypan blue exclusion assay
CCRF-CEM [7] = test: Cytotoxicity against human CEM cells at 50 uM after 48 hrs by trypan blue exclusion assay
CCRF-CEM [8] = test: Cell cycle arrest in human CEM cells assessed as accumulation at sub G1 phase after 72 hrs by FACS
CCRF-CEM [9] = test: Cell cycle arrest in human CEM cells assessed as accumulation at G1 phase after 72 hrs by FACS

Measured: Activity

CCN1C(=O)C(=C(C)C)SC1=S
active: CCRF-CEM [1] Dose-dependent effect | CCRF-CEM [2] | CCRF-CEM [3] Dose-dependent effect | CCRF-CEM [4] tde | CCRF-CEM [5] Dose-dependent effect | CCRF-CEM [6] | CCRF-CEM [7] | CCRF-CEM [8] Dose-dependent effect | CCRF-CEM [9] Dose-dependent effect
